From paper PMC12338828, “Evaluation of organotin (IV) dithiocarbamate compounds as potential anti-leukemia agents towards CCRF-CEM (CCL-119) cell line: Cytotoxic, apoptotic, cell cycle and genotoxic study” (PLOS One, 2025)
Values joined by “and” are separate entries in the source; they are usually repeats but may differ in a detail not shown here. Identical values can stand only once.

Key:
[1] = system: CCL-119 cells; test: Alkaline comet assay; assay type: cell-based; conditions: for DNA damage class / Tail moment / percentage of DNA intensity in the tail / % DNA intensity: 1 hour of exposure
Method: VCR was used as a positive control, and untreated cells were used as a negative control in this assay. The cells were incubated for 1 hour. After incubation, cells in each well were transferred to the Eppendorf tube to centrifuge for 5 minutes at 4°C by using a refrigerated microcentrifuge. The supernatant was removed, and the samples were washed with 1 mL of cold PBS. This process was repeated 3 times. After completion of the process, the supernatant was removed, and the pellet was left for a while on top of the ice while preparing the slide.
About 140 µL of normal melting agar (NMA) is pipetted on top of the fully frosted slide, and a cover slip is put on the agar for 5 minutes or until the agar fully solidifies. After that, the cover slip was removed, and 80 µL of low melting agar (LMA) was added to an Eppendorf tube containing the pellet of cells. The suspension was then transferred into a frosted slide with NMA agar. The cover slip was then put back on top of the frosted slide for 10 minutes or until dry. Next, the slide was transferred into a Coplin jar that contained lysis buffer solution and Triton X-100. The slides were then incubated at 4°C overnight. The slides were arranged on an electrophoresis tank filled with electrophoresis buffer for 20 minutes. Electrophoresis is done for another 20 minutes at 25 V with 300 mA. The slides were washed with a neutralization buffer solution 3 times at a 5-minute time interval. Finally, 30 µL of ethidium bromide (50 µg/mL) was added, and the slide was observed by using fluorescence microscopy (OLYMPUS BX51TR). CometScore software is used to analyze the DNA damage of the cells. The comet assay was performed under alkaline conditions (pH > 13) to detect both single- and double-strand DNA breaks.

[2] = system: CCL-119 cells; test: Mode of cell death, Annexin V-FITC/PI staining (flow cytometry); assay type: cell-based; conditions: for Early Apoptosis (Q4) / Late Apoptosis (Q2) / Necrosis (Q1) / Viable (Q3): 24 hours at IC50, single replicates n1-n3; for cell death through apoptosis (population of cells): 24 hours, treated at IC50, early + late apoptosis
Method: The mode of cell death can be observed through the Annexin V-FITC/PI staining (BD, USA). The result of this test is either apoptosis or necrosis. […] VCR was used as a positive control, while cells without any treatment were used as a negative control. Then, the plate was incubated for 24 hours. After the incubation, the cell suspension in each well was collected into different Eppendorf tubes. The tubes were then centrifuged for 5 minutes at 1500 rpm at 4°C. After the centrifuge, the supernatant in the tubes was removed, and the cell pellets were washed twice with cold PBS. Then, centrifuge the tubes again and remove the supernatant. Next, 100 µL of Annexin V binding buffer was resuspended in each tube, and 5 µL Annexin V-FITC was pipetted into the tube to stain the cells for 15 minutes at room temperature, dark. After that, 5 µL of propidium iodide was piped into the tube for 5 minutes. The staining process is done in dark conditions. Lastly, the sample was transferred into the Falcon tube, and each tube was resuspended in 400 µL of Annexin V binding buffer. The sample was analyzed using a flow cytometer (BD FACS Canto II) within one hour.

[3] = system: CCL-119 cells; test: Cell cycle analysis (PI/RNase staining); assay type: cell-based; conditions: for cells in G0/G1 phase / cells in G2/M phase / cells in S phase: 24 hours at IC50, single replicates n1-n3; for Phases of Cell Cycle Arrest: 24 hours at IC50 concentrations
Method: The cells were cultured and seeded in a 6-well plate at 1 x 10^6 cells/mL. VCR was used as a positive control, and untreated cells were used as a negative control in this assay. The concentration of the compounds and VCR was followed by IC50 values that were taken from the MTT assay.
After 24 hours of incubation, all cells in the plate were transferred to the Eppendorf tube and centrifuged for 5 minutes at 4°C at 1500 rpm. After centrifuging, the supernatant was removed, and cells were washed with 500 µL cold PBS three times. The pellet was fixed by using 70% ethanol overnight at −20°C. Next, the samples were stained with 500 µL of PI/RNase staining buffer and incubated for 15 minutes. The samples were then transferred into Falcon tubes. The data was recorded using a flow cytometer and analyzed using ModFit LT software.

[4] = system: WIL2-NS cells; design: method as in Rasli et al. (2023); conditions: non-cancerous cells; 24 hours of exposure; graph referred to earlier paper; ref Rasli et al. (2023); cited from earlier work
[5] = system: CCL-119 cells; test: MTT cytotoxicity assay; conditions: for cell viability at 0.31 µM / cell viability at 0.63 µM / cell viability at 1.25 µM / cell viability at 2.50 µM / cell viability at 5.00 µM / Selectivity Index (SI): 24 hours; for cell viability at 0.31 µM / cell viability at 0.63 µM / cell viability at 1.25 µM / cell viability at 2.50 µM / cell viability at 5.00 µM: single replicates n1-n3, untreated = 100.00; for cell viability at 2.50 µM: 2.5 µM; for Selectivity Index (SI): IC50 WIL2-NS / IC50 CCL-119; for IC50: read-out: IC50 (µM) CCL-119, 24 hours of exposure, mean ± SEM, n = 3
Method: The T-acute lymphoblastic leukemia cell line, CCRF-CEM (CCL-119™), and a non-cancerous cell, WIL2-NS (CRL-8155™), were purchased from the American Type Culture Collection (ATCC). Both are suspension types of cells and were cultured in Roswell Park Memorial Institute Medium 1640 (RPMI-1640) (Sigma-Aldrich), supplemented with 10% Fetal Bovine Serum (FBS) (Capricorn Scientific) and 1% penicillin-streptomycin (Nacalai Tesque) to obtain the complete growth medium and were incubated at 37 °C with a 5% CO2 incubator. Both suspension cells are used for tests when the cells’ passage becomes passage 3–10 (maximum).
All stock solutions of the organotin (IV) dithiocarbamate compounds were prepared at 10 mM and dissolved in dimethyl sulphoxide (DMSO) (ChemAR®). The stock solutions were stored at 4°C; fresh dilutions were made by adding the RPMI-1640 medium before the experiment. The dilution is carried out using the serial dilution method to obtain the desired concentrations, which are 5 µM, 2.5 µM, 1.25 µM, 0.63 µM, 0.32 µM, and 0.16 µM in this study. Vincristine (VCR) is used as a positive control in this study.
Both CCL-119 and WIL2-NS cells were seeded in a 96-well plate at a final concentration of 5 x 10^5 cells/well and treated with 5 µM, 2.5 µM, 1.25 µM, 0.63 µM, 0.32 µM, and 0.16 µM of organotin (IV) dithiocarbamate compound for 24 hours at 37°C with 5% CO2. VCR was used as a positive control in this study, while cells without treatment were used as a negative control. After 24 hours of exposure, 20 µL of MTT (Merck) salt solution was added into each well and incubated for another 4 hours. The plate was wrapped with aluminium foil as MTT salt is light sensitive. After 4 hours, the purple crystal formazan was formed. All the medium was removed carefully from each well, and 200 µL DMSO was added to each well to dissolve the purple formazan crystal. Then, the plates were incubated for an additional 15 minutes. The results were analyzed and recorded using an ELISA microplate reader at 570 nm. The data was then plotted into a graph, and IC50 values were determined.
The selectivity index (SI) is determined by dividing the cytotoxic activity (IC50 value) of each compound on a non-cancerous cell line (WIL2-NS) by the leukemia cell line (CCL-119). […] WIL2- NS cell lines were selected as the comparator because it is a non-cancerous human B lymphoblast cell line, which is like CCL-119 (T-lymphoblastic leukemia), derived from lymphocytes. This choice ensures that comparisons are made between biologically similar cell types, minimizing variability that could arise from differences in tissue origin or lineage.

SMILES: CC(C)N(C(=S)[S][Sn]([S]C(=S)N(C(C)C)C(C)C)([c]1ccccc1)[c]1ccccc1)C(C)C [ODTC 1, diphenyltin (IV) diisopropyl dithiocarbamate]
- DNA damage / genotoxic effect (in words) [1]: highest genotoxic effects
- DNA damage class [1]: class 3
- Tail moment ([1]; mean ± SEM): 68.58 ± 3.31 A.U
- percentage of DNA intensity in the tail ([1]; mean ± SEM): 27.50 ± 2.36%
- % DNA intensity ([1]; single replicates n1-n3): 31.5757% and 23.3927% and 27.534%
- Tail moment ([1]; single replicates n1-n3): 74.8179 A.U and 67.3969 A.U and 63.5391 A.U
- Early Apoptosis (Q4) [2]: 45.2% and 37.2% and 40.2%
- Late Apoptosis (Q2) [2]: 34.7% and 29.3%
- Necrosis (Q1) [2]: 0.2% and 1% and 0.6%
- Viable (Q3) [2]: 28.4% and 29.5% and 29.9%
- cell death through apoptosis (population of cells) [2]: 77.6%
- cells in G0/G1 phase [3]: 44.44% and 52.78% and 46.11%
- cells in G2/M phase [3]: 0.17% and 1.28% and 8.00%
- cells in S phase [3]: 55.38% and 45.94% and 45.89%
- Phases of Cell Cycle Arrest [3]: S phase
- IC50 [4]: 1.39 ± 0.46 µM
- cell viability at 0.31 µM [5]: 68.12% and 70.47% and 62.95%
- cell viability at 0.63 µM [5]: 46.30% and 50.11% and 43.95%
- cell viability at 1.25 µM [5]: 30.25% and 39.66% and 27.67%
- cell viability at 2.50 µM [5]: 11.95% and 23.57% and 13.38%
- cell viability at 5.00 µM [5]: 8.78% and 22.56% and 11.96%
- Selectivity Index (SI) [5]: 2.48
- IC50 [5]: 0.56 ± 0.04 µM

SMILES: C=CCN(CC=C)C(=S)[S][Sn]([S]C(=S)N(CC=C)CC=C)([c]1ccccc1)[c]1ccccc1 [ODTC 2, diphenyltin (IV) diallyl dithiocarbamate]
- DNA damage / genotoxic effect (in words) [1]: caused detectable DNA damage
- DNA damage class [1]: class 2
- Tail moment ([1]; mean ± SEM): 6.83 ± 2.58 A.U
- percentage of DNA intensity in the tail ([1]; mean ± SEM): 10.18 ± 0.89%
- % DNA intensity ([1]; single replicates n1-n3): 9.179% and 9.419% and 11.9522%
- Tail moment ([1]; single replicates n1-n3): 5.421 A.U and 3.237 A.U and 11.8306 A.U
- Early Apoptosis (Q4) [2]: 36.1% and 39.2% and 31.1%
- Late Apoptosis (Q2) [2]: 31.5% and 32.9% and 28.1%
- Necrosis (Q1) [2]: 1% and 0.6%
- Viable (Q3) [2]: 31.4% and 27% and 40.2%
- cell death through apoptosis (population of cells) [2]: 66.3%
- cells in G0/G1 phase [3]: 51.19% and 55.53% and 53.01%
- cells in G2/M phase [3]: 1.93% and 1.68% and 4.38%
- cells in S phase [3]: 46.88% and 42.78% and 42.61%
- IC50 [4]: 0.52 ± 0.14 µM
- cell viability at 0.31 µM [5]: 49.85% and 27.71% and 26.10%
- cell viability at 0.63 µM [5]: 26.34% and 15.19% and 17.94%
- cell viability at 1.25 µM [5]: 29.61% and 16.46% and 16.39%
- cell viability at 2.50 µM [5]: 28.76% and 19.14% and 15.77%
- cell viability at 5.00 µM [5]: 31.88% and 17.53% and 10.93%
- Selectivity Index (SI) [5]: 2.36
- IC50 [5]: 0.22 ± 0.04 µM

SMILES: CC(C)N(C(=S)[S][Sn]([c]1ccccc1)([c]1ccccc1)[c]1ccccc1)C(C)C [ODTC 3, triphenyltin (IV) diisopropyl dithiocarbamate]
- Tail moment ([1]; mean ± SEM): 22.25 ± 0.93 A.U
- percentage of DNA intensity in the tail ([1]; mean ± SEM): 10.79 ± 0.72%
- % DNA intensity ([1]; single replicates n1-n3): 9.366% and 11.3439% and 11.6624%
- Tail moment ([1]; single replicates n1-n3): 20.8823 A.U and 21.8477 A.U and 24.0274 A.U
- Early Apoptosis (Q4) [2]: 35.9% and 47.6% and 15.9%
- Late Apoptosis (Q2) [2]: 10.8% and 9% and 12%
- Necrosis (Q1) [2]: 0.1% and 0% and 1.5%
- Viable (Q3) [2]: 53.2% and 43.4% and 70.6%
- cells in G0/G1 phase [3]: 9.54% and 24.65% and 21.14%
- cells in G2/M phase [3]: 90.46% and 75.18% and 78.7%
- cells in S phase [3]: 0% and 0.17% and 0.16%
- IC50 [4]: 0.75 ± 0.07 µM
- cell viability at 0.31 µM [5]: 47.07% and 58.65% and 40.35%
- cell viability at 0.63 µM [5]: 40.17% and 50.04% and 42.00%
- cell viability at 1.25 µM [5]: 42.27% and 42.45% and 31.66%
- cell viability at 2.50 µM [5]: 35.57% and 24.06% and 25.57%
- cell viability at 5.00 µM [5]: 27.21% and 27.19% and 34.26%
- Selectivity Index (SI) [5]: 3.13

SMILES: C=CCN(CC=C)C(=S)[S][Sn]([c]1ccccc1)([c]1ccccc1)[c]1ccccc1 [ODTC 4, triphenyltin (IV) diallyl dithiocarbamate]
- Tail moment ([1]; mean ± SEM): 25.83 ± 2.60 A.U
- percentage of DNA intensity in the tail ([1]; mean ± SEM): 14.24 ± 0.94%
- % DNA intensity ([1]; single replicates n1-n3): 12.9244% and 13.7623% and 16.0541%
- Tail moment ([1]; single replicates n1-n3): 29.2637 A.U and 27.4848 A.U and 20.7304 A.U
- Early Apoptosis (Q4) [2]: 41.4% and 46.5% and 27%
- Late Apoptosis (Q2) [2]: 15.2% and 19.2% and 9.9%
- Necrosis (Q1) [2]: 0.2% and 0.1%
- Viable (Q3) [2]: 43.2% and 34.2% and 63%
- cells in G0/G1 phase [3]: 45.09% and 46.03% and 29.64%
- cells in G2/M phase [3]: 8.07% and 7.1% and 0%
- cells in S phase [3]: 46.84% and 46.87% and 70.36%
- Phases of Cell Cycle Arrest [3]: S phase
- IC50 [4]: 0.67 ± 0.14 µM
- cell viability at 0.31 µM [5]: 30.40% and 42.75% and 41.34%
- cell viability at 0.63 µM [5]: 24.51% and 37.25% and 30.23%
- cell viability at 1.25 µM [5]: 26.67% and 22.56% and 24.61%
- cell viability at 2.50 µM [5]: 25.39% and 26.40% and 25.55%
- cell viability at 5.00 µM [5]: 20.16% and 12.33% and 18.27%
- Selectivity Index (SI) [5]: 4.19
